Test system: 616215-338-R-J1-PDC spheroids with HUVEC/MSC, viability
Assay: Anticancer human tumor 616215-338-R-J1-PDC patient-derived colon adenocarcinoma cell line growth inhibition [PI3K]
Conditions: for viability, T/C: stronger effect = lower value; for IC50: curve of first compound
Procedure, shortened: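 Three cell types, namely tumor cells, endothelial cells and mesenchymal stem cells, formed each spheroid. Combinations with four PI3K inhibitors were screened at clinically achievable concentrations decreasing by half-log, and spheroid viability was recorded.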

[1] = second compound 0.0316 µM, first compound 0.0316 µM
[2] = second compound 0.0316 µM, first compound 0.1 µM
[3] = second compound 0.1 µM, first compound 0.0316 µM
[4] = second compound 0.1 µM, first compound 0.1 µM
[5] = second compound 0.316 µM, first compound 0.0316 µM
[6] = second compound 0.316 µM, first compound 0.1 µM
[7] = second compound 1 µM, first compound 0.0316 µM
[8] = second compound 1 µM, first compound 0.1 µM
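Further: spheroids exposed to agents for seven days before the viability read.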

Cn1cnc2c(F)c(Nc3ccc(Br)cc3Cl)c(C(=O)NOCCO)cc21
viability, T/C (compound 0.00949 µM): 96.1% [middle of 4 runs] | viability, T/C (compound 0.03 µM): 94.7% [middle of 4 runs] | viability, T/C (compound 0.0949 µM): 92.1% [middle of 4 runs] | viability, T/C (compound 0.3 µM): 80.6% [middle of 4 runs] | viability, T/C (compound 0.949 µM): 58.5% [middle of 4 runs] | viability, T/C (compound 3 µM): 45.3% [middle of 4 runs]

Cn1ncnc1[C@H]1c2n[nH]c(=O)c3cc(F)cc(c23)N[C@@H]1c1ccc(F)cc1 + CC(Nc1ncnc2nc[nH]c12)c1cc2cccc(Cl)c2c(=O)n1-c1ccccc1
IC50 (second compound 0.0316 µM): > 100 nM | IC50 (second compound 0.1 µM): > 100 nM | IC50 (second compound 0.316 µM): > 100 nM | IC50 (second compound 1 µM): > 100 nM | IC50 (second compound 3.16 µM): > 100 nM | IC50 (second compound 10 µM): > 100 nM | viability, T/C (second compound 0.0316 µM, first compound 0.000316 µM): 104% | viability, T/C (second compound 0.0316 µM, first compound 0.001 µM): 104% | viability, T/C (second compound 0.0316 µM, first compound 0.00316 µM): 102% | viability, T/C (second compound 0.0316 µM, first compound 0.01 µM): 96.8% | viability, T/C [1]: 105% | viability, T/C [2]: 96.8% | viability, T/C (second compound 0.1 µM, first compound 0.000316 µM): 87.6% | viability, T/C (second compound 0.1 µM, first compound 0.001 µM): 97.8% | viability, T/C (second compound 0.1 µM, first compound 0.00316 µM): 97% | viability, T/C (second compound 0.1 µM, first compound 0.01 µM): 92.9% | viability, T/C [3]: 101% | viability, T/C [4]: 93.5% | viability, T/C (second compound 0.316 µM, first compound 0.000316 µM): 98.5% | viability, T/C (second compound 0.316 µM, first compound 0.001 µM): 95.6% | viability, T/C (second compound 0.316 µM, first compound 0.00316 µM): 106% | viability, T/C (second compound 0.316 µM, first compound 0.01 µM): 96.9% | viability, T/C [5]: 96.9% | viability, T/C [6]: 101% | viability, T/C (second compound 1 µM, first compound 0.000316 µM): 101% | viability, T/C (second compound 1 µM, first compound 0.001 µM): 109% | viability, T/C (second compound 1 µM, first compound 0.00316 µM): 99.7% | viability, T/C (second compound 1 µM, first compound 0.01 µM): 105% | viability, T/C [7]: 100% | viability, T/C [8]: 91.5% | viability, T/C (second compound 3.16 µM, first compound 0.000316 µM): 91.5% | viability, T/C (second compound 3.16 µM, first compound 0.001 µM): 108% | viability, T/C (second compound 3.16 µM, first compound 0.00316 µM): 106% | viability, T/C (second compound 3.16 µM, first compound 0.01 µM): 90% | viability, T/C (second compound 3.16 µM, first compound 0.0316 µM): 94.9% | viability, T/C (second compound 3.16 µM, first compound 0.1 µM): 100% | viability, T/C (second compound 10 µM, first compound 0.000316 µM): 111% | viability, T/C (second compound 10 µM, first compound 0.001 µM): 106% | viability, T/C (second compound 10 µM, first compound 0.00316 µM): 102% | viability, T/C (second compound 10 µM, first compound 0.01 µM): 96.7% | viability, T/C (second compound 10 µM, first compound 0.0316 µM): 100% | viability, T/C (second compound 10 µM, first compound 0.1 µM): 95%

CCCS(=O)(=O)Nc1ccc(F)c(C(=O)c2c[nH]c3ncc(-c4ccc(Cl)cc4)cc23)c1F + COc1c(OCCCN2CCOCC2)ccc2c3n(c(=NC(=O)c4cnc(N)nc4)nc12)CCN3
IC50 (second compound 0.00316 µM): 4830 nM | IC50 (second compound 0.01 µM): 5110 nM | IC50 (second compound 0.0316 µM): 4930 nM | IC50 (second compound 0.1 µM): 2860 nM | IC50 (second compound 0.316 µM): < 31.6 nM | IC50 (second compound 1 µM): < 31.6 nM | viability, T/C (second compound 0.00316 µM, first compound 0.0316 µM): 91.8% | viability, T/C (second compound 0.00316 µM, first compound 0.1 µM): 96.1% | viability, T/C (second compound 0.00316 µM, first compound 0.316 µM): 99% | viability, T/C (second compound 0.00316 µM, first compound 1 µM): 97.9% | viability, T/C (second compound 0.00316 µM, first compound 3.16 µM): 77.9% | viability, T/C (second compound 0.00316 µM, first compound 10 µM): 2.29% | viability, T/C (second compound 0.01 µM, first compound 0.0316 µM): 105% | viability, T/C (second compound 0.01 µM, first compound 0.1 µM): 104% | viability, T/C (second compound 0.01 µM, first compound 0.316 µM): 98.3% | viability, T/C (second compound 0.01 µM, first compound 1 µM): 94.7% | viability, T/C (second compound 0.01 µM, first compound 3.16 µM): 84.9% | viability, T/C (second compound 0.01 µM, first compound 10 µM): 3.47% | viability, T/C [1]: 105% | viability, T/C [2]: 107% | viability, T/C (second compound 0.0316 µM, first compound 0.316 µM): 120% | viability, T/C (second compound 0.0316 µM, first compound 1 µM): 106% | viability, T/C (second compound 0.0316 µM, first compound 3.16 µM): 77% | viability, T/C (second compound 0.0316 µM, first compound 10 µM): 7.26% | viability, T/C [3]: 99% | viability, T/C [4]: 92.8% | viability, T/C (second compound 0.1 µM, first compound 0.316 µM): 87.3% | viability, T/C (second compound 0.1 µM, first compound 1 µM): 93.7% | viability, T/C (second compound 0.1 µM, first compound 3.16 µM): 45.9% | viability, T/C (second compound 0.1 µM, first compound 10 µM): 9.33% | viability, T/C [5]: 53.8% | viability, T/C [6]: 35.7% | viability, T/C (second compound 0.316 µM, first compound 0.316 µM): 38.9% | viability, T/C (second compound 0.316 µM, first compound 1 µM): 38.5% | viability, T/C (second compound 0.316 µM, first compound 3.16 µM): 27% | viability, T/C (second compound 0.316 µM, first compound 10 µM): 5.18% | viability, T/C [7]: 23.3% | viability, T/C [8]: 29.3% | viability, T/C (second compound 1 µM, first compound 0.316 µM): 21.3% | viability, T/C (second compound 1 µM, first compound 1 µM): 20.1% | viability, T/C (second compound 1 µM, first compound 3.16 µM): 18.7% | viability, T/C (second compound 1 µM, first compound 10 µM): 3.73%

Reference: PubChem BioAssay AID1963978 (Molecular Pharmacology Branch, DTP, NCI, 2024)
